Experiments:
Type in all cases: in vivo
[1] = test system: pigweed (Amaranthus retroflexus); assay: Test C preemergence, visual plant response rating
Procedure, shortened: (§1)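 Visual injury on a 0 (no effect) to 100 (complete control) scale versus untreated controls, scored approximately 10 d after treatment under greenhouse conditions. Treatments used surfactant-containing non-phytotoxic solvent formulations, sprayed onto loam–sand soil preemergence or onto one- to two-leaf plants 2–10 cm tall postemergence.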

[2] = test system: barnyardgrass (Echinochloa crus-galli); assay: Test C preemergence, visual plant response rating
Procedure, shortened: as §1

[3] = test system: Italian ryegrass (Lolium mutiflorum); assay: Test C preemergence, visual plant response rating
Procedure, shortened: as §1

[4] = test system: ragweed (common ragweed, Ambrosia artemisiifolia); assay: Test C preemergence, visual plant response rating
Procedure, shortened: as §1

[5] = test system: foxtail, giant (giant foxtail, Setaria faberi); assay: Test C preemergence, visual plant response rating
Procedure, shortened: as §1

kochia (Bassia scoparia) [6] = assay: Test C preemergence, visual plant response rating
Procedure, shortened: as §1

[7] = test system: pigweed (Amaranthus retroflexus); assay: Test C postemergence, visual plant response rating
Procedure, shortened: as §1

[8] = test system: barnyardgrass (Echinochloa crus-galli); assay: Test C postemergence, visual plant response rating
Procedure, shortened: as §1

[9] = test system: blackgrass (Alopecurus myosuroides); assay: Test C postemergence, visual plant response rating
Procedure, shortened: as §1

[10] = test system: Italian ryegrass (Lolium mutiflorum); assay: Test C postemergence, visual plant response rating
Procedure, shortened: as §1

[11] = test system: ragweed (common ragweed, Ambrosia artemisiifolia); assay: Test C postemergence, visual plant response rating
Procedure, shortened: as §1

[12] = test system: galium (catchweed bedstraw, Galium aparine); assay: Test C postemergence, visual plant response rating
Procedure, shortened: as §1

[13] = test system: foxtail, giant (giant foxtail, Setaria faberi); assay: Test C postemergence, visual plant response rating
Procedure, shortened: as §1

[14] = test system: wheat (Triticum aestivum); assay: Test C postemergence, visual plant response rating
Procedure, shortened: as §1

corn (Zea mays) = assay: Test C postemergence, visual plant response rating
Procedure, shortened: as §1

kochia (Bassia scoparia) [15] = assay: Test C postemergence, visual plant response rating
Procedure, shortened: as §1

[16] = test system: barnyardgrass (Echinochloa crus-galli); assay: Test D flooded paddy test, visual plant response rating; conditions: 250 g ai/ha, scale 0 to 100 (0 no effect, 100 complete control), 13 to 15 d
Procedure, shortened: (§2)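 Visual injury scores, 0 (no effect) to 100 (complete control), were assigned after 13 to 15 d in the greenhouse by comparison with controls. Test compounds had been added to paddy water covering soil by 3 cm at the 2-leaf stage.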

[17] = test system: sedge umbrella (small-flower umbrella sedge, Cyperus difformis); assay: as above; conditions: 250 g ai/ha, scale 0 to 100 (0 no effect, 100 complete control), 13 to 15 d
Procedure, shortened: as §2

rice (Oryza sativa) = assay: as above; conditions: 250 g ai/ha, scale 0 to 100 (0 no effect, 100 complete control), 13 to 15 d
Procedure, shortened: as §2

[18] = test system: duck salad (Heteranthera limosa); assay: as above; conditions: 250 g ai/ha, scale 0 to 100 (0 no effect, 100 complete control), 13 to 15 d
Procedure, shortened: as §2

[19] = Test C, 31 g ai/ha, 0 is no effect, 100 is complete control
[20] = Test C, 125 g ai/ha, 0 is no effect, 100 is complete control
[21] = Test C, postemergence, 125 g ai/ha
[22] = Test C, postemergence, 31 g ai/ha
[23] = Test C, postemergence, 1000 g ai/ha

Row | Structure (SMILES) | Pigweed plant response rating (0 to 100 scale) [1, 19] | Barnyardgrass plant response rating (0 to 100 scale) [2, 19] | Ryegrass, Italian plant response rating (0 to 100 scale) [3, 19] | Ragweed plant response rating (0 to 100 scale) [4, 19] | Foxtail, Giant plant response rating (0 to 100 scale) [5, 19] | Kochia plant response rating (0 to 100 scale) (kochia (Bassia scoparia) [6]; [19]) | Pigweed plant response rating (0 to 100 scale) ([7]; Postemergence, 31 g ai/ha) | Pigweed plant response rating (0 to 100 scale) [7, 21] | Barnyardgrass plant response rating (0 to 100 scale) [8, 21] | Blackgrass plant response rating (0 to 100 scale) [9, 21] | Ryegrass, Italian plant response rating (0 to 100 scale) ([10]; Postemergence, 31 g ai/ha) | Ryegrass, Italian plant response rating (0 to 100 scale) [10, 21] | Ragweed plant response rating (0 to 100 scale) ([11]; Postemergence, 31 g ai/ha) | Ragweed plant response rating (0 to 100 scale) [11, 21] | Galium plant response rating (0 to 100 scale) [12, 21] | Foxtail, Giant plant response rating (0 to 100 scale) [13, 21] | Plant response rating, Barnyardgrass (Flood) [16] | Plant response rating, Sedge, Umbrella (Flood) [17] | Plant response rating, Rice (Flood) (rice (Oryza sativa)) | Plant response rating, Ducksalad (Flood) [18] | further results
1 | CO/N=C(/c1ccc(F)c(Cl)c1)c1c(O)c(C)nn(C)c1=O [Compound 218] | 0 | 0 | 0 | 0 | 0 | 0 | 20 | 60 | 10 | 0 | 40 | 60 | 0 | 10 | 80 | 0 | 0 | 0 | 0 | 0 | Pigweed plant response rating (0 to 100 scale) [1, 20]: 0; Barnyardgrass plant response rating (0 to 100 scale) [2, 20]: 0; Ryegrass, Italian plant response rating (0 to 100 scale) [3, 20]: 10; Ragweed plant response rating (0 to 100 scale) [4, 20]: 0; Foxtail, Giant plant response rating (0 to 100 scale) [5, 20]: 0; Kochia plant response rating (0 to 100 scale) (kochia (Bassia scoparia) [6]; [20]): 0; Barnyardgrass plant response rating (0 to 100 scale) ([8]; Postemergence, 31 g ai/ha): 0; Blackgrass plant response rating (0 to 100 scale) ([9]; Postemergence, 31 g ai/ha): 0; Galium plant response rating (0 to 100 scale) ([12]; Postemergence, 31 g ai/ha): 50; Foxtail, Giant plant response rating (0 to 100 scale) ([13]; Postemergence, 31 g ai/ha): 0; Wheat plant response rating (0 to 100 scale) ([14]; Postemergence, 31 g ai/ha): 0; Wheat plant response rating (0 to 100 scale) [14, 21]: 0; Corn plant response rating (0 to 100 scale) (corn (Zea mays); Postemergence, 31 g ai/ha): 0; Corn plant response rating (0 to 100 scale) (corn (Zea mays); [21]): 0; Kochia plant response rating (0 to 100 scale) (kochia (Bassia scoparia) [15]; Postemergence, 31 g ai/ha): 10; Kochia plant response rating (0 to 100 scale) (kochia (Bassia scoparia) [15]; [21]): 30
2 | C#CCO/N=C(/c1cc(C)cc(Cl)c1)c1c(O)c(C)nn(C)c1=O [Compound 154] | 40 | 40 | 40 | 40 | 60 | 0 | 30 | 100 | 90 | 90 | 70 | 100 | 70 | 90 | 100 | 90 | 0 | 0 | 0 | 0 | Pigweed plant response rating (0 to 100 scale) ([1]; 125 g ai/ha): 90; Barnyardgrass plant response rating (0 to 100 scale) ([2]; 125 g ai/ha): 90; Ryegrass, Italian plant response rating (0 to 100 scale) ([3]; 125 g ai/ha): 100; Ragweed plant response rating (0 to 100 scale) ([4]; 125 g ai/ha): 80; Foxtail, Giant plant response rating (0 to 100 scale) ([5]; 125 g ai/ha): 100; Kochia plant response rating (0 to 100 scale) (kochia (Bassia scoparia) [6]; 125 g ai/ha): 90; Barnyardgrass plant response rating (0 to 100 scale) [8, 22]: 50; Blackgrass plant response rating (0 to 100 scale) [9, 22]: 50; Galium plant response rating (0 to 100 scale) [12, 22]: 90; Foxtail, Giant plant response rating (0 to 100 scale) [13, 22]: 80; Wheat plant response rating (0 to 100 scale) ([14]; Postemergence, 31 g ai/ha): 30; Wheat plant response rating (0 to 100 scale) [14, 21]: 90; Corn plant response rating (0 to 100 scale) (corn (Zea mays); [22]): 0; Corn plant response rating (0 to 100 scale) (corn (Zea mays); [21]): 40; Kochia plant response rating (0 to 100 scale) (kochia (Bassia scoparia) [15]; [22]): 60; Kochia plant response rating (0 to 100 scale) (kochia (Bassia scoparia) [15]; [21]): 70
3 | CON=C(c1cc(Cl)cc(Cl)c1F)c1c(O)c(C)nn(C)c1=O [Compound 299] | 100 | 90 | 100 | 90 | 100 | 90 | 90 | 100 | 90 | 80 | 100 | 100 | 100 | 100 | 100 | 100 | 85 | 90 | 45 | 80 | Pigweed plant response rating (0 to 100 scale) [1, 20]: 100; Barnyardgrass plant response rating (0 to 100 scale) [2, 20]: 100; Ryegrass, Italian plant response rating (0 to 100 scale) [3, 20]: 100; Ragweed plant response rating (0 to 100 scale) [4, 20]: 100; Foxtail, Giant plant response rating (0 to 100 scale) [5, 20]: 100; Kochia plant response rating (0 to 100 scale) (kochia (Bassia scoparia) [6]; [20]): 100; Barnyardgrass plant response rating (0 to 100 scale) ([8]; Postemergence, 31 g ai/ha): 70; Blackgrass plant response rating (0 to 100 scale) ([9]; Postemergence, 31 g ai/ha): 80; Galium plant response rating (0 to 100 scale) ([12]; Postemergence, 31 g ai/ha): 100; Foxtail, Giant plant response rating (0 to 100 scale) ([13]; Postemergence, 31 g ai/ha): 90; Wheat plant response rating (0 to 100 scale) ([14]; Postemergence, 31 g ai/ha): 30; Wheat plant response rating (0 to 100 scale) [14, 21]: 70; Corn plant response rating (0 to 100 scale) (corn (Zea mays); Postemergence, 31 g ai/ha): 10; Corn plant response rating (0 to 100 scale) (corn (Zea mays); [21]): 30; Kochia plant response rating (0 to 100 scale) (kochia (Bassia scoparia) [15]; Postemergence, 31 g ai/ha): 100; Kochia plant response rating (0 to 100 scale) (kochia (Bassia scoparia) [15]; [21]): 100
4 | C#CCO/N=C(/c1c(O)cnn(C)c1=O)c1cccc2ccccc12 [Compound 221] |  |  |  |  |  |  |  |  |  |  |  |  |  |  |  |  | 0 | 0 | 0 | 0 | Pigweed plant response rating (0 to 100 scale) ([1]; 1000 g ai/ha): 100; Barnyardgrass plant response rating (0 to 100 scale) ([2]; 1000 g ai/ha): 30; Ryegrass, Italian plant response rating (0 to 100 scale) ([3]; 1000 g ai/ha): 100; Ragweed plant response rating (0 to 100 scale) ([4]; 1000 g ai/ha): 80; Foxtail, Giant plant response rating (0 to 100 scale) ([5]; 1000 g ai/ha): 100; Kochia plant response rating (0 to 100 scale) (kochia (Bassia scoparia) [6]; 1000 g ai/ha): 60; Pigweed plant response rating (0 to 100 scale) [7, 23]: 90; Barnyardgrass plant response rating (0 to 100 scale) [8, 23]: 70; Blackgrass plant response rating (0 to 100 scale) [9, 23]: 90; Ryegrass, Italian plant response rating (0 to 100 scale) [10, 23]: 100; Ragweed plant response rating (0 to 100 scale) [11, 23]: 80; Galium plant response rating (0 to 100 scale) [12, 23]: 100; Foxtail, Giant plant response rating (0 to 100 scale) [13, 23]: 60; Wheat plant response rating (0 to 100 scale) [14, 23]: 60; Corn plant response rating (0 to 100 scale) (corn (Zea mays); [23]): 20; Kochia plant response rating (0 to 100 scale) (kochia (Bassia scoparia) [15]; [23]): 70
